Patent US10576062B2, “Carbamoyloxymethyl triazole cyclohexyl acids as LPA antagonists” (Bristol-Myers Squibb Company, priority 2016, dated 2020)

The compounds below were run against T1, human LPA1 (Homo sapiens, UniProt Q92633) (assay: LPA1 functional antagonist assay (LPA-induced calcium flux)). Conditions: CHO cells overexpressing human LPA1; inhibition of calcium flux induced by 10 nM LPA; read-out: hLPA1 IC50.
T1 construct: expressed in transfected cells; host or cells: Chinese hamster ovary (CHO) cells
T1 sequence (Q92633 whole entry): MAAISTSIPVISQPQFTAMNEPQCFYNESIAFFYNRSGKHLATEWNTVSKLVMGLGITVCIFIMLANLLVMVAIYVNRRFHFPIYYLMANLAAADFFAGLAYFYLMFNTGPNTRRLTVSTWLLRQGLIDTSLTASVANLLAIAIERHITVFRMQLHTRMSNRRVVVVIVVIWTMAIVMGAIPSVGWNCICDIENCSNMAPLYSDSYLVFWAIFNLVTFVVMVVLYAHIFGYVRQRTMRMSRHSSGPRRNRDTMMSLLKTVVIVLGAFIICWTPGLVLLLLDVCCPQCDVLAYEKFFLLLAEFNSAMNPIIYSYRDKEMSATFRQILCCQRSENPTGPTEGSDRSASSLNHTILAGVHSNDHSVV
Type: cell-based
How it was run: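 CHO cells overexpressing human LPA1, loaded with calcium dye 30 min at 37° C, were preincubated 20 min at room temperature with compound (0.08 nM–5 μM, 0.5% DMSO) in HBSS/20 mM HEPES/0.1% fatty acid-free BSA.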

IC50 [nM] | SMILES
14 | CCc1nc(-c2nnn(C)c2COC(=O)N(C)CC2CC2)ccc1O[C@H]1CCC[C@H](C(=O)O)C1 [Example 194, (1S,3S)-3-((6-(5-((((cyclopropylmethyl)(methyl)carbamoyl)oxy)methyl)-1-methyl-1H-1,2,3-triazol-4-yl)-2-ethylpyridin-3-yl)oxy)cyclohexane-1-carboxylic acid]
11 | CCc1nc(-c2nnn(C)c2COC(=O)N(C)C2CCCC2)ccc1O[C@H]1CCC[C@H](C(=O)O)C1 [Example 195, (1S,3S)-3-((6-(5-(((cyclopentyl(methyl)carbamoyl)oxy)methyl)-1-methyl-1H-1,2,3-triazol-4-yl)-2-ethylpyridin-3-yl)oxy)cyclohexane-1-carboxylic acid]
27 | CCc1nc(-c2nnn(C)c2COC(=O)N(C)CC(C)C)ccc1O[C@H]1CCC[C@H](C(=O)O)C1 [Example 197, (1S,3S)-3-((2-ethyl-6-(5-(((isobutyl(methyl)carbamoyl)oxy)methyl)-1-methyl-1H-1,2,3-triazol-4-yl)pyridin-3-yl)oxy)cyclohexane-1-carboxylic acid]
46 | CCc1nc(-c2nnn(C)c2COC(=O)NCc2ccccc2)ccc1O[C@H]1CCC[C@H](C(=O)O)C1 [Example 198, (1S,3S)-3-((6-(5-(((benzylcarbamoyl)oxy)methyl)-1-methyl-1H-1,2,3-triazol-4-yl)-2-ethylpyridin-3-yl)oxy)cyclohexane-1-carboxylic acid]
7 | CCCCN(C)C(=O)OCc1c(-c2ccc(O[C@H]3CCC[C@H](C(=O)O)C3)c(CC)n2)nnn1C [Example 199, (1S,3S)-3-((6-(5-(((butyl(methyl)carbamoyl)oxy)methyl)-1-methyl-1H-1,2,3-triazol-4-yl)-2-ethylpyridin-3-yl)oxy)cyclohexane-1-carboxylic acid]
11 | CCCN(C)C(=O)OCc1c(-c2ccc(O[C@H]3CCC[C@H](C(=O)O)C3)c(CC)n2)nnn1C [Example 200, (1S,3S)-3-((2-ethyl-6-(1-methyl-5-(((methyl(propyl)carbamoyl)oxy)methyl)-1H-1,2,3-triazol-4-yl)pyridin-3-yl)oxy)cyclohexane-1-carboxylic acid]
25 | CCc1nc(-c2nnn(C)c2COC(=O)N(C)Cc2ccccc2)ccc1O[C@H]1CCC[C@H](C(=O)O)C1 [Example 201, (1S,3S)-3-((6-(5-(((benzyl(methyl)carbamoyl)oxy)methyl)-1-methyl-1H-1,2,3-triazol-4-yl)-2-ethylpyridin-3-yl)oxy)cyclohexane-1-carboxylic acid]
160 | CCc1nc(-c2nnn(C)c2COC(=O)N(C)CC)ccc1O[C@H]1CCC[C@H](C(=O)O)C1 [Example 202, (1S,3S)-3-((2-ethyl-6-(5-(((ethyl(methyl)carbamoyl)oxy)methyl)-1-methyl-1H-1,2,3-triazol-4-yl)pyridin-3-yl)oxy)cyclohexane-1-carboxylic acid]
8 | CCc1nc(-c2nnn(C)c2COC(=O)N(C)C2CCC2)ccc1O[C@H]1CCC[C@H](C(=O)O)C1 [Example 203, (1S,3S)-3-((6-(5-(((cyclobutyl(methyl)carbamoyl)oxy)methyl)-1-methyl-1H-1,2,3-triazol-4-yl)-2-ethylpyridin-3-yl)oxy)cyclohexane-1-carboxylic acid]
102 | CCc1nc(-c2nnn(C)c2COC(=O)N2CC(C)(C)C2)ccc1O[C@H]1CCC[C@H](C(=O)O)C1 [Example 204, (1S,3S)-3-((6-(5-(((3,3-dimethylazetidine-1-carbonyl)oxy)methyl)-1-methyl-1H-1,2,3-triazol-4-yl)-2-ethylpyridin-3-yl)oxy)cyclohexane-1-carboxylic acid]
842 | CCc1nc(-c2nnn(C)c2COC(=O)NC23CC(C2)C3)ccc1O[C@H]1CCC[C@H](C(=O)O)C1 [Example 205, (1S,3S)-3-((6-(5-(((bicyclo[1.1.1]pentan-1-ylcarbamoyl)oxy)methyl)-1-methyl-1H-1,2,3-triazol-4-yl)-2-ethylpyridin-3-yl)oxy)cyclohexane-1-carboxylic acid]

Same assay, conditions: human LPA1; read-out: hLPA1 IC50

IC50 [nM] | SMILES
703 | Cn1nnc(-c2ccc(O[C@H]3CCC[C@H](C(=O)O)C3)cn2)c1COC(=O)N1CCC2(CCC2)C1 [Example 175, (1S,3S)-3-((6-(5-(((6-azaspiro[3.4]octane-6-carbonyl)oxy)methyl)-1-methyl-1H-1,2,3-triazol-4-yl)pyridin-3-yl)oxy)cyclohexane-1-carboxylic acid]
400 | Cn1nnc(-c2ccc(O[C@H]3CCC[C@H](C(=O)O)C3)cn2)c1COC(=O)N1CC2(CCC2)C1 [Example 176, (1S,3S)-3-((6-(5-(((2-azaspiro[3.3]heptane-2-carbonyl)oxy)methyl)-1-methyl-1H-1,2,3-triazol-4-yl)pyridin-3-yl)oxy)cyclohexane-1-carboxylic acid]
21 | CC(C)=CCN(C)C(=O)OCc1c(-c2ccc(O[C@H]3CCC[C@H](C(=O)O)C3)c(C)n2)nnn1C [Example 177, (1S,3S)-3-((2-methyl-6-(1-methyl-5-(((methyl(3-methylbut-2-en-1-yl)carbamoyl)oxy)methyl)-1H-1,2,3-triazol-4-yl)pyridin-3-yl)oxy)cyclohexane-1-carboxylic acid]
156 | Cc1nc(-c2nnn(C)c2COC(=O)N(C)C(C)(C)CF)ccc1O[C@H]1CCC[C@H](C(=O)O)C1 [Example 178, (1S,3S)-3-((6-(5-((((1-fluoro-2-methylpropan-2-yl)(methyl)carbamoyl)oxy)methyl)-1-methyl-1H-1,2,3-triazol-4-yl)-2-methyl-pyridin-3-yl)oxy)cyclohexane-1-carboxylic acid]
14 | Cc1nc(-c2nnn(C)c2COC(=O)N(C)C2CC3(CC3)C2)ccc1O[C@H]1CCC[C@H](C(=O)O)C1 [Example 179, (1S,3S)-3-((2-methyl-6-(1-methyl-5-(((methyl(spiro[2.3]hexan-5-yl)carbamoyl)oxy)methyl)-1H-1,2,3-triazol-4-yl)pyridin-3-yl)oxy)cyclohexane-1-carboxylic acid]
62 | CN(C(=O)OCc1c(-c2ccc(O[C@H]3CCC[C@H](C(=O)O)C3)cn2)nnn1C)C1CC2(CCC2)C1 [Example 180, (1S,3S)-3-((6-(1-methyl-5-(((methyl(spiro[3.3]heptan-2-yl)carbamoyl)oxy)methyl)-1H-1,2,3-triazol-4-yl)pyridin-3-yl)oxy)cyclohexane-1-carboxylic acid]
101 | CN(C(=O)OCc1c(-c2ccc(O[C@H]3CCC[C@H](C(=O)O)C3)cn2)nnn1C)C1CC(C)(C)C1 [Example 181, (1S,3S)-3-((6-(5-((((3,3-dimethylcyclobutyl)(methyl)carbamoyl)oxy)methyl)-1-methyl-1H-1,2,3-triazol-4-yl)pyridin-3-yl)oxy)cyclohexane-1-carboxylic acid]
20 | CN(C(=O)OCc1c(-c2ccc(O[C@H]3CCC[C@H](C(=O)O)C3)cn2)nnn1C)C1CC2(CC2)C1 [Example 183, (1S,3S)-3-((6-(1-methyl-5-(((methyl(spiro[2.3]hexan-5-yl)carbamoyl)oxy)methyl)-1H-1,2,3-triazol-4-yl)pyridin-3-yl)oxy)cyclohexane-1-carboxylic acid]
50 | Cc1nc(-c2nnn(C)c2COC(=O)N(C)CCC(C)(C)F)ccc1O[C@H]1CCC[C@H](C(=O)O)C1 [Example 187, (1S,3S)-3-((6-(5-((((3-fluoro-3-methylbutyl)(methyl)carbamoyl)oxy)methyl)-1-methyl-1H-1,2,3-triazol-4-yl)-2-methylpyridin-3-yl)oxy)cyclohexane-1-carboxylic acid]
32 | CN(CCC(C)(C)F)C(=O)OCc1c(-c2ccc(O[C@H]3CCC[C@H](C(=O)O)C3)cn2)nnn1C [Example 188, (1S,3S)-3-((6-(5-((((3-fluoro-3-methylbutyl)(methyl)carbamoyl)oxy)methyl)-1-methyl-1H-1,2,3-triazol-4-yl)pyridin-3-yl)oxy)cyclohexane-1-carboxylic acid]
120 | Cc1nc(-c2nnn(C)c2COC(=O)N(C)CC2(F)CCC2)ccc1O[C@H]1CCC[C@H](C(=O)O)C1 [Example 189, (1S,3S)-3-((6-(5-(((((1-fluorocyclobutyl)methyl)(methyl)carbamoyl)oxy)methyl)-1-methyl-1H-1,2,3-triazol-4-yl)-2-methylpyridin-3-yl)oxy)cyclohexane-1-carboxylic acid]
81 | Cc1nc(-c2nnn(C)c2COC(=O)N(C)CCCF)ccc1O[C@H]1CCC[C@H](C(=O)O)C1 [Example 190, (1S,3S)-3-((6-(5-((((3-fluoropropyl)(methyl)carbamoyl)oxy)methyl)-1-methyl-1H-1,2,3-triazol-4-yl)-2-methylpyridin-3-yl)oxy)cyclohexane-1-carboxylic acid]
553 | Cc1nc(-c2nnn(C)c2COC(=O)NCCCCF)ccc1O[C@H]1CCC[C@H](C(=O)O)C1 [Example 191, (1S,3S)-3-((6-(5-((((4-fluorobutyl)carbamoyl)oxy)methyl)-1-methyl-1H-1,2,3-triazol-4-yl)-2-methylpyridin-3-yl)oxy)cyclohexane-1-carboxylic acid]
36 | Cc1nc(-c2nnn(C)c2COC(=O)N(C)CCCCF)ccc1O[C@H]1CCC[C@H](C(=O)O)C1 [Example 192, (1S,3S)-3-((6-(5-((((4-fluorobutyl)(methyl)carbamoyl)oxy)methyl)-1-methyl-1H-1,2,3-triazol-4-yl)-2-methylpyridin-3-yl)oxy)cyclohexane-1-carboxylic acid]
1700 | CCCN(C)C(=O)OCc1c(-c2ccc(O[C@@H]3CCC[C@@H](C(=O)O)C3)c(C)n2)nnn1C [Example 193, (1R,3R)-3-((2-methyl-6-(1-methyl-5-(((methyl(propyl)carbamoyl)oxy)methyl)-1H-1,2,3-triazol-4-yl)pyridin-3-yl)oxy)cyclohexane-1-carboxylic acid]
